Results from publication PMC4099323, “Inhibition of Catalase by Tea Catechins in Free and Cellular State: A Biophysical Approach” (PLoS ONE, 2014).

Assays:
[1] = target: T1, Catalase (from bovine liver) (Bos taurus, UniProt P00432); test: Circular dichroism: catechin-induced conformational change in catalase; details: catalase 1 µM, ligands 3 µM each, 25°C
T1 construct: Catalase (from bovine liver); purchased Sigma-Aldrich, St. Louis, MO, USA; host or cells: bovine liver
T1 sequence (P00432 2-527 limits assumed): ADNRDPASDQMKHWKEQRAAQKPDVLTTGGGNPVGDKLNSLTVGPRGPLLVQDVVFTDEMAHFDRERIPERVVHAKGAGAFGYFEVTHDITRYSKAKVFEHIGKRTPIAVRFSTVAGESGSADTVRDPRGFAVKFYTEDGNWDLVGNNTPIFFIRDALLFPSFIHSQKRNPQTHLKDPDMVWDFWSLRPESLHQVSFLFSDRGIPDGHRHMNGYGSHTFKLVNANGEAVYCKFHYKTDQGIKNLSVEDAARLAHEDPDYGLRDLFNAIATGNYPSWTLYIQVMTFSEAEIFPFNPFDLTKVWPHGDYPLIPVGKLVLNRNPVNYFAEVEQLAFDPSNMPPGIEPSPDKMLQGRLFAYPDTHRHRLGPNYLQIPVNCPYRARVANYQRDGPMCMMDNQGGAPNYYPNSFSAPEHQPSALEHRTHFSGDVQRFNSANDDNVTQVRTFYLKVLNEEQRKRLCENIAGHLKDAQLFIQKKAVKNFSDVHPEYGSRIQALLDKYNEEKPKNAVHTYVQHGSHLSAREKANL
Protocol: All the CD experiments were carried out on a Jasco-815 automatic spectropolarimeter (Jasco International Co., Ltd. Hachioji, Japan) equipped with a peltier cuvette holder and temperature controller PFD425 L/15. The catalase concentration and path length of the cuvette used were 1 µM and 0.1 cm, respectively. The instrument parameters were set at scanning speed of 50 nm/min, bandwidth of 1.0 nm and sensitivity of 100 milli degree. The molar ellipticity values are expressed in terms of mean residue molar ellipticity, in units of deg. cm^2 dmol^−1.
CD allows investigation of the conformational changes that occur in a protein upon ligand binding. The CD spectra of catalase at pH 7.4 in the absence and in the presence of EGC, EC, ECG, EGCG, and 3-AT at 25°C are represented in Figure 5 (a – f). […] The negative band at 208 and 220 nm decreased in intensity with the addition of various catechins, which is indicative of the loss of α-helicity upon interaction. […] From the CD spectra, the effect of catechins on the secondary structure of catalase is in the following order: 3-AT>EGCG>ECG>EC>EGC.

[2] = target: T1, Catalase (from bovine liver); test: Fluorimetric titration: quenching of catalase fluorescence by catechins; type: binding
Protocol: Fluorescence spectra were recorded using a Perkin Elmer fluorescence spectrophotometer (LS-55) equipped with 150 W Xenon flash lamp and using fluorescence-free quartz cell of 1 cm path length. The widths of excitation and emission slits were set to 5 nm, and scan speed (100 nm/min), excitation voltage were kept constant for each data set. Quantitative analysis of the potential interaction between catechins and catalase was performed by the fluorimetric titration technique. Briefly, solution of catalase (5×10^−7 M, as calculated using molar extinction coefficient of 3.24×10^5 M^−1 s^−1 at 405 nm for catalase) in 50 mM phosphate buffer of pH 7.4 was titrated in cuvette by successive additions of individual catechin solution aliquots from a stock of 5×10^−7 M. Fluorescence emission spectra were recorded in the wavelength range of 290–450 nm upon excitation at 280 nm when catalase samples were titrated with catechins. All experiments were carried out at room temperature. Fluorescence intensity was measured at 340 nm of protein emission spectra. Fluorescence spectra of individual catechins in buffer were recorded as blanks under the same experimental conditions and subtracted from the corresponding sample to correct the fluorescence background.
The binding constants and the number of binding sites involved were calculated according to the relation: log (F0–F)/F = log K+n log [Q], where K is the binding constant and n is the number of binding sites, F0 is the fluorescence intensity of free catalase, F is the consecutive fluorescence on addition of catechins, and [Q] is the concentration of the quencher (here catechins). A plot of log (F0– F)/F and log [Q] was used to determine the values of K and n from the intercept and the slope respectively (Figure 3 A–D).

vimentin = details: read-out: dissociation constant (K d); cited from earlier work
[3] = target: human dihydrofolate reductase (DHFR); set-up: method as in PMID 20054477; details: fluorescence quenching; cited from earlier work
K562 cells = test: MTT cell viability assay; type: cell-based; details: Homo sapiens
Protocol: Cell viability of K562 cells was quantified by MTT based colorimetric assay as described elsewhere. Briefly, cells were rinsed with PBS and 0.5 mg/ml MTT was added into each sample. The mixture was incubated at 37°C for an additional 3 h. At the end of incubation period, the medium containing MTT was removed and the pellet was dissolved in 200 µl DMSO. Absorbance was measured at a wavelength of 570 nm. Cell viability was expressed as a percentage of the control culture.
The concentration (IC50) at which the K562 cell survivability was reduced to 50% was calculated for EGCG and 3-AT by MTT based cell viability assay.

In the case of O=C(O[C@@H]1Cc2c(O)cc(O)cc2O[C@@H]1c1cc(O)c(O)c(O)c1)c1cc(O)c(O)c(O)c1 [EGCG, (−)-epigallocatechin gallate], the “order of effect on the secondary structure of catalase (loss of α-helicity)” value [1] is reported as 3-AT>EGCG>ECG>EC>EGC, the “number of binding sites n” value ([2]; double logarithmic plot, 25°C) is reported as “single binding site” and the “binding constant K with catalase (fluorimetric)” value ([2]; double logarithmic plot, 25°C, pH 7.4, λex 280 nm) is reported as 2.27e+06 M⁻¹. For the same compound, the Kd ([2]; from the fluorimetric binding constant, read-out: K d to catalase) was 440 nM, the Kd (vimentin) was 3.3 nM and the Kd [3] was 900 nM. The IC50 (K562 cells) was 54.5 µM and the IC50 (K562 cells; conversion of the µM value) was 27 µg/mL.
